Legend:
[1] = molecular target: T1, PPARγ (Homo sapiens, UniProt P37231); experiment: aP2 Assay for PPAR Gamma Agonists (bDNA aP2 mRNA, preadipocytes); type: cell-based; conditions: fold induction, unbracketed values; PPARγ standard FI = 70.3
T1 construct: Following the challenge of the preadipocytes, cells may be lysed with lysis buffer; endogenous in cells; host or cells: preadipocytes
T1 sequence (P37231 1-505): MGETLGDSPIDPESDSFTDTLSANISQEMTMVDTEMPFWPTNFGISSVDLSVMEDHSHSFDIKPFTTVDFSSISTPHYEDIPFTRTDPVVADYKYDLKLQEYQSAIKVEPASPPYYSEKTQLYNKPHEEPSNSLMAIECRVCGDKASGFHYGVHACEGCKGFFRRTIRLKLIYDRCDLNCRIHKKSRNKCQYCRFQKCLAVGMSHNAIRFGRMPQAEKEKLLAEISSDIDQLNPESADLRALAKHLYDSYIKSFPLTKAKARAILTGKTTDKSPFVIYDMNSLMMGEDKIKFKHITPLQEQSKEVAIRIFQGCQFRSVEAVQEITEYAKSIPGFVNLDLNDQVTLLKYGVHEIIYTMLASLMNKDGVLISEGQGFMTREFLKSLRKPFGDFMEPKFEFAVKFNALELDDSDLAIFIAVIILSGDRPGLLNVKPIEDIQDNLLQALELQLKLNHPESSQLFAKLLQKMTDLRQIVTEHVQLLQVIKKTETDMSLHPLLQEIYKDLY
Description: aP2 Assay for PPAR Gamma Agonists
The procedure is described in detail in Burris et al., Molecular Endocrinology 1999, 13:410, which is hereby incorporated by reference in its entirety, and aP2 assay results of agonist intrinsic activity may be presented as fold increase over vehicle in induction of aP2 mRNA production.
Twenty-four hours after the initial seeding of the 96-well plates by hand (around 20,000/well), the differentiation assay may be initiated. Medium may be removed and replaced with 150 μl of differentiation medium containing vehicle (DMSO) or test compounds. Cells may be returned to incubator for 24 hours culture. At the termination of the challenge, medium may be removed and 100 ul of lysis buffer may be added to initiate the bDNA aP2 mRNA assay. The branched DNA assay may be performed according to the manufacturer's protocol (Bayer Diagnostics; Emeryville, Calif.). Result may be expressed as the fold increase of aP2 mRNA production activated over vehicle controls. EC50's and Emax may be determined by non-linear regression with a sigmoidal fit curve.
Following the challenge of the preadipocytes, cells may be lysed with lysis buffer (Bayer Diagnostics) containing the aP2 oligonucleotides. After a 15 minute incubation at 53° C. or 30 minutes at 37° C. incubator, 70 ul of the lysis buffer from each well may be added to a corresponding capture well (preincubated with 70 ul of blocking buffer (Bayer Diagnostics)). The capture plate may be incubated overnight at 53° C. in a plate incubator (Bayer Diagnostics). After this incubation, the bDNA and labeled probes may be annealed as directed by the manufacturer. Following a 30-minute incubation with the luminescent alkaline phosphatase substrate, dioxitane, the luminescence may be quantitated in a Dynex MLX microtiter plate luminometer. Oligonucleotide probes designed to anneal to the aP2 mRNA and function in the bDNA mRNA detection system are designed with ProbeDesigner software (Bayer Diagnostics). This software package analyzes a target sequence of interest with a series of algorithms in order to determine which regions of the sequence can perform as locations for capture, label, or spacer probe annealing. The sequences of the oligonucleotides are as follows: […]

[2] = molecular target: T2, PPARδ (Homo sapiens, UniProt Q03181); experiment: Transfection Assay for PPARδ Receptors (PPAR-Gal4 receptor / Gal4-Luciferase Reporter, HEK293 cells); type: cell-based; conditions: for PPARδ FI: fold induction, unbracketed values, PPARδ standard FI = 36.1
T2 sequence (Q03181 171-441 limits assumed): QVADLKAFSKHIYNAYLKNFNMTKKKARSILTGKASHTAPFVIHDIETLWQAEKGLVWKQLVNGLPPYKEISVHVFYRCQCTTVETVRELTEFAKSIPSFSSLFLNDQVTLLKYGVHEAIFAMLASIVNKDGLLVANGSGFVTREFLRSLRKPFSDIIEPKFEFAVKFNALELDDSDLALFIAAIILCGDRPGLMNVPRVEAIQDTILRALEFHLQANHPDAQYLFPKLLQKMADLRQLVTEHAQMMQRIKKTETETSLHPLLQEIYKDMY
Protocol: Transfection Assay for PPARδ Receptors
HEK293 cells were grown in DMEM/F-12 Media supplemented with 10% FBS and glutamine (GIBCOBRL). The cells were co-transfected with DNA for PPAR-Gal4 receptor and Gal4-Luciferase Reporter using the DMRIE-C Reagent. On the following day, the DNA-containing medium were replaced with 5% Charcoal treated FBS growth medium. After six hours, cells were seeded in 96 well plate and incubated at 37° C. in CO2 incubator overnight. Cells were challenged by test compounds and incubated for 24 hours at 37° C. in 5% CO2 incubator. Luciferase activity was assayed using the Steady-Glo Luciferase Assay Kit from Promega. DMRIE-C Reagent was purchased from GIBCO Cat. No. 10459-014. OPTI-MEM I Reduced Serum Medium was purchased from GIBCO Cat. No. 31985. Steady-Glo Luciferase Assay Kit was obtained from Promega Part# E254B.

Structure (SMILES)	PPARγ FI [1]	PPARδ FI [2]	EC50 ([2]; bracketed values) [µM]
CCCCCCN(C(=O)Nc1ccc(OC(F)(F)F)cc1)C1Cc2ccc(SC(C)(C)C(=O)O)cc2C1 (centres unmarked) [Example 14, 2-Methyl-2-{2-[1-hexyl-3-(4-trifluoromethoxyphenyl)ureido]indan-5-ylsulfanyl}propionic acid]	0.3	1.3	–
CCCCCN(C(=O)Nc1ccc2ccccc2c1)C1Cc2ccc(SC(C)(C)C(=O)O)cc2C1 (centres unmarked) [Example 39, 2-Methyl-2-[2-(3-naphthalen-2-yl-1-pentylureido)indan-5-ylsulfanyl]propionic acid]	–	9.3	–
C=CCCCN(C(=O)Nc1ccc(OC(F)(F)F)cc1)C1Cc2ccc(SC(C)(C)C(=O)O)cc2C1 (centres unmarked) [Example 19, 2-Methy-2-{2-[1-pent-4-enyl-3-(4-trifluoromethoxyphenyl)ureido]indan-5-ylsulfanyl}propionic acid]	–	1.4	–
CCCN(C(=O)Nc1ccc(OC)cc1)C1Cc2ccc(SC(C)(C)C(=O)O)cc2C1 (centres unmarked) [Example 32, 2-{2-[3-(4-Methoxyphenyl)-1-propylureido]indan-5-ylsulfanyl}-2-methylpropionic acid]	–	1.5	–
CC(C)(Sc1ccc2c(c1)CC(NC(=O)Nc1ccc(OC(F)(F)F)cc1)C2)C(=O)O (centres unmarked) [Example 18, 2-Methyl-2-{2-[3-(4-trifluoromethoxyphenyl)ureido]indan-5-ylsulfanyl}propionic acid]	0.31	–	–
CC(C)CCN(C(=O)Nc1ccc(OC(F)(F)F)cc1)C1Cc2ccc(SC(C)(C)C(=O)O)cc2C1 (centres unmarked) [Example 20, 2-Methyl-2-{2-[1-(3-methylbutyl)-3-(4-trifluoromethoxyphenyl)ureido]indan-5-ylsulfanyl}-2-methylpropionic acid]	0.44	–	–
CCCCN(C(=O)Nc1ccc(SC(F)(F)F)cc1)C1Cc2ccc(SC(C)(C)C(=O)O)cc2C1 (centres unmarked) [Example 17, 2-Methyl-2-{2-[1-butyl-3-(4-trifluoromethylsulfanylphenyl)ureido]indan-5-ylsulfanyl}propionic acid]	0.43	–	–
CCN(C(=O)Nc1ccc(OC(F)(F)F)c(Br)c1)C1Cc2ccc(SC(C)(C)C(=O)O)cc2C1 (centres unmarked) [Example 25, 2-{2-[3-(3-Bromo-4-trifluoromethoxyphenyl)-1-ethylureido]indan-5-ylsulfanyl}-2-methylpropionic acid]	–	4.5	–
CCCCCCN(C(=O)Nc1ccc(C(C)C)cc1)C1Cc2ccc(SC(C)(C)C(=O)O)cc2C1 (centres unmarked) [Example 13, 2-{2-[3-(4-Isopropylphenyl)-1-hexylureido]indan-5-ylsulfanyl}-2-methylpropionic acid]	1.2	–	–
CCN(C(=O)Nc1ccc(N(C)C)cc1)C1Cc2ccc(SC(C)(C)C(=O)O)cc2C1 (centres unmarked) [Example 7, 2-{2-[3-(4-Dimethylaminophenyl)-1-ethylureido]indan-5-ylsulfanyl}-2-methylpropionic acid]	0	0.8	–
CC(C)(Sc1ccc2c(c1)CC(N(CCCC1CCCC1)C(=O)Nc1ccccc1)C2)C(=O)O (centres unmarked) [Example 37, 2-{2-[1-(3-Cyclopentylpropyl)-3-phenylureido]indan-5-ylsulfanyl}-2-methylpropionic acid]	–	1.9	–
CCCN(C(=O)Nc1cc(C)cc(C)c1)C1Cc2ccc(SC(C)(C)C(=O)O)cc2C1 (centres unmarked) [Example 33, 2-{2-[3-(3,5-Dimethylphenyl)-1-propylureido]indan-5-ylsulfanyl}-2-methylpropionic acid]	–	0.8	–
CCCN(C(=O)Nc1ccc(C(F)(F)F)cc1)C1Cc2ccc(SC(C)(C)C(=O)O)cc2C1 (centres unmarked) [Example 35, 2-Methyl-2-{2-[1-propyl-3-(4-trifluoromethylphenyl)ureido]indan-5-ylsulfanyl}-propionic acid]	–	5.6	–
CCCCCN(C(=O)Nc1ccc(OC(F)(F)F)cc1)C1Cc2ccc(SC(C)(C)C(=O)O)cc2C1 (centres unmarked) [Example 8, 2-Methyl-2-{2-[1-pentyl-3-(4-trifluoromethoxyphenyl)ureido]indan-5-ylsulfanyl}-2-methylpropionic acid]	1.9	5.9	–
CCCN(C(=O)Nc1ccc(OC(F)(F)F)cc1)C1CCc2ccc(SC(C)(C)C(=O)O)cc2C1 (centres unmarked) [Example 46, 2-Methyl-2-{7-[1-propyl-3-(4-trifluoromethoxyphenyl)ureido}-5,6,7,8-tetrahydronaphthalen-2-ylsulfanyl}propionic acid]	–	6.0	–
CC(C)CCN(C(=O)Nc1ccc(C(C)C)cc1)C1Cc2ccc(SC(C)(C)C(=O)O)cc2C1 (centres unmarked) [Example 21, 2-{2-[3-(4-Isopropylphenyl)-1-(3-methylbutyl)ureido]indan-5-ylsulfanyl}-2-methylpropionic acid]	0.05	–	–
CCCCCN(C(=O)Nc1ccc(-c2ccccc2)cc1)C1Cc2ccc(SC(C)(C)C(=O)O)cc2C1 (centres unmarked) [Example 12, 2-[2-(3-Biphenyl-4-yl-1-pentylureido)indan-5-ylsulfanyl]-2-methylpropionic acid]	11	–	–
CC(C)(Sc1ccc2c(c1)CC(N(CCCC1CCCC1)C(=O)Nc1ccc(OC(F)(F)F)cc1)C2)C(=O)O (centres unmarked) [Example 28, 2-{2-[1-(3-Cyclopentylpropyl)-3-(4-trifluoromethoxyphenyl)ureido]indan-5-ylsulfanyl}-2-methylpropionic acid]	–	8.2	–
CCCCCCN(C(=O)Nc1ccc(SC(F)(F)F)cc1)C1Cc2ccc(SC(C)(C)C(=O)O)cc2C1 (centres unmarked) [Example 15, 2-Methyl-2-{2-[1-hexyl-3-(4-trifluoromethylsulfanylphenyl)ureido]indan-5-ylsulfanyl}propionic acid]	–	1.2	–
CCN(C(=O)Nc1cccc(OC(F)(F)F)c1)C1Cc2ccc(SC(C)(C)C(=O)O)cc2C1 (centres unmarked) [Example 26, 2-{2-[1-Ethyl-3-(3-trifluoromethoxyphenyl)ureido]indan-5-ylsulfanyl}-2-methylpropionic acid]	–	2.1	–
CCN(C(=O)Nc1ccc(C(C)(C)C)cc1)C1CCc2cc(SC(C)(C)C(=O)O)c(OC)cc2C1 (centres unmarked) [Example 49, 2-{6-[3-(4-tert-Butylphenyl)1-ethylureido]-3-methoxy-5,6,7,8-tetrahydronaphthalen-2-ylsulfanyl}-2-methylpropionic acid]	–	–	> 3
CCCN(C(=O)Nc1ccc(OC(F)(F)F)cc1)C1Cc2ccc(SC(C)(C)C(=O)O)cc2C1 (centres unmarked) [Example 16, 2-Methyl-2-{2-[1-propyl-3-(4-trifluoromethoxyphenyl)ureido]indan-5-ylsulfanyl}propionic acid]	0.37	–	–
CCN(C(=O)Nc1ccc(SC(F)(F)F)cc1)C1Cc2ccc(SC(C)(C)C(=O)O)cc2C1 (centres unmarked) [Example 4, 2-{2-[1-Ethyl-3-(4-trifluoromethylsulfanylphenyl)ureido]indan-5-ylsulfanyl}-2-methylpropionic acid]	3.7	–	–
